According to paper PMC9181188 (International Journal of Molecular Sciences, 2022):
≈ marks a conversion by molar mass, not a printed value. Where two headings read alike, the source gives them in different places.

Legend:
PC3 cells = assay: MTT assay, PC3; assay type: cell-based, human; conditions: for IC50: Homo sapiens, PC-3, 72 h, human metastatic prostate cancer, 72 h, MTT, mean ± SD; for SI PC3: SI = IC50 for normal cell line (HaCaT)/IC50 cancer cell line
S. aureus ATCC 6538 = assay: MIC, twofold microdilution, standard strain; assay type: cell-based; conditions: Staphylococcus aureus, ATCC6538; 18 h of treatment; read-out: MIC S. aureus ATCC 6538
[1] = system: M. tuberculosis Spec. 192 (Sensitive to Tuberculostatics); assay: MABA (microplate Alamar blue assay) MIC; assay type: cell-based; conditions: Mycobacterium tuberculosis, 336 h, read-out: MIC M. tuberculosis Spec. 192 (Sensitive to Tuberculostatics)
[2] = target: T1, S. aureus topoisomerase IV (Staphylococcus aureus, UniProt P0C1S7+P0C1U9); assay: S. aureus topoisomerase IV decatenation assay; assay type: biochemical
T1 construct: purchased Inspiralis
T1 sequence (P0C1U9 whole entry): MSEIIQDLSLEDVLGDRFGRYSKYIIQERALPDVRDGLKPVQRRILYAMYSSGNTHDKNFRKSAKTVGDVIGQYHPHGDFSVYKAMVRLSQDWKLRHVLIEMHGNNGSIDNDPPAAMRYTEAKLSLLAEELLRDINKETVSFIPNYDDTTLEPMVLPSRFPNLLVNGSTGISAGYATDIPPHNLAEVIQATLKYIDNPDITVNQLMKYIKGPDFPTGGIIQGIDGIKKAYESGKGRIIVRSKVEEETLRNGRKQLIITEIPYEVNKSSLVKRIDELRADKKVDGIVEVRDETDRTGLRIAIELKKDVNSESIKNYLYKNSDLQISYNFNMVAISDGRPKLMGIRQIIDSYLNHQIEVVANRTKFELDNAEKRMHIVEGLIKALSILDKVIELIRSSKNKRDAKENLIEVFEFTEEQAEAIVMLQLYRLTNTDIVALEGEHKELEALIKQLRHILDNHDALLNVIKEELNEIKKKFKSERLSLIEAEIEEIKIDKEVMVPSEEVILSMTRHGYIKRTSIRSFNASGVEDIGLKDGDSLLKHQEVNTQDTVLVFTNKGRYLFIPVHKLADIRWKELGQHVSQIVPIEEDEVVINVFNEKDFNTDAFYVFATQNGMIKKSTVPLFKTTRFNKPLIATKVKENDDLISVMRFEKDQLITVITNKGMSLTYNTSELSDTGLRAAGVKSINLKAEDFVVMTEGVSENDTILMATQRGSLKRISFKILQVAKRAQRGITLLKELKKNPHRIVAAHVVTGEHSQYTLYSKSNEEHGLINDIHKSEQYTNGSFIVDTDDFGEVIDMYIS
T1 sequence (P0C1S7 whole entry): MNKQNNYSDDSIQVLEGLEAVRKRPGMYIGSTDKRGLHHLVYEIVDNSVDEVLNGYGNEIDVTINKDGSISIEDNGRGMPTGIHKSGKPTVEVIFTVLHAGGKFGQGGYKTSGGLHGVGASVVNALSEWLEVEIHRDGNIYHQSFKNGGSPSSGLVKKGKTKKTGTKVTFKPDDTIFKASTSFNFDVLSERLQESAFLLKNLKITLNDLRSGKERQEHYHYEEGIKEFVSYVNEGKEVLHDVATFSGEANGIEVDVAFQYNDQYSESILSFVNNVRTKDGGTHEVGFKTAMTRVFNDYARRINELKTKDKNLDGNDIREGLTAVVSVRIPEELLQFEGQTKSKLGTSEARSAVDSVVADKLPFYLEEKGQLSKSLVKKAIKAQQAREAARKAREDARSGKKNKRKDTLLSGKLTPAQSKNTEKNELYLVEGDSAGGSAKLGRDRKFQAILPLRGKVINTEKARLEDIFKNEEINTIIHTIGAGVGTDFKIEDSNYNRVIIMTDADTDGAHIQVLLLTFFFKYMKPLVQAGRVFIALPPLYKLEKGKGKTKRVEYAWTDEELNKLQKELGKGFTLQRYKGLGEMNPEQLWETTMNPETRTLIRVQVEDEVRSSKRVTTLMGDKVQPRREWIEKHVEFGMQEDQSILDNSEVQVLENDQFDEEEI
Description: The assay was performed using S. aureus topoisomerase IV […] kit (Inspiralis). Kinetoplast DNA (kDNA) was the substrate for topoisomerase IV.

M. tuberculosis strains = assay: MABA MIC, mycobacterial strains as a group; assay type: cell-based; conditions: Mycobacterium tuberculosis, read-out: MIC antimycobacterial (strain not specified)
S. aureus ATCC 29213 = assay: MIC, twofold microdilution, standard strain; assay type: cell-based; conditions: Staphylococcus aureus, ATCC29213; 18 h of treatment; read-out: MIC S. aureus ATCC 29213
[3] = system: S. epidermidis ATCC 12228; assay: MIC, twofold microdilution, standard strain; assay type: cell-based; conditions: Staphylococcus epidermidis, ATCC12228; 18 h of treatment; read-out: MIC S. epidermidis ATCC 12228
E. coli ATCC 25922 = assay: MIC, twofold microdilution, standard strain; assay type: cell-based, Escherichia coli; conditions: for MIC: Escherichia coli, read-out: MIC E. coli ATCC 25922
[4] = system: S. epidermidis ATCC 35984; assay: MIC, twofold microdilution, standard strain; assay type: cell-based; conditions: Staphylococcus epidermidis, ATCC35984; 18 h of treatment; read-out: MIC S. epidermidis ATCC 35984
HaCaT cells = assay: MTT assay, HaCaT normal cells; assay type: cell-based; conditions: human immortal keratinocyte cell line, 72 h, mean ± SD
[5] = system: S. epidermidis T 5501 851/19; assay: MIC, clinical S. epidermidis strain; assay type: cell-based; conditions: Staphylococcus epidermidis, T5501851/19, read-out: MIC T 5501 851/19, quinolone-susceptible, 18 h of treatment
[6] = system: S. epidermidis KR 4243 829/19; assay: MIC, clinical S. epidermidis strain; assay type: cell-based; conditions: Staphylococcus epidermidis, KR4243829/19, quinolone-susceptible, 18 h of treatment
P. aeruginosa ATCC 27853 = assay: MIC, twofold microdilution, standard strain; assay type: cell-based; conditions: Pseudomonas aeruginosa, ATCC27853; 18 h of treatment; read-out: MIC P. aeruginosa ATCC 27853
[7] = system: standard staphylococci (S. aureus, S. epidermidis); assay: MIC, standard Gram-positive strains as a group; assay type: cell-based; conditions: Staphylococcus aureus; range over standard Gram-positive strains; read-out: MIC against standard staphylococci
S. aureus DNA gyrase = S. aureus DNA gyrase (Staphylococcus aureus, UniProt P0A0K8+P20831); assay: biochemical
S. aureus DNA gyrase, sequence (P20831 whole entry): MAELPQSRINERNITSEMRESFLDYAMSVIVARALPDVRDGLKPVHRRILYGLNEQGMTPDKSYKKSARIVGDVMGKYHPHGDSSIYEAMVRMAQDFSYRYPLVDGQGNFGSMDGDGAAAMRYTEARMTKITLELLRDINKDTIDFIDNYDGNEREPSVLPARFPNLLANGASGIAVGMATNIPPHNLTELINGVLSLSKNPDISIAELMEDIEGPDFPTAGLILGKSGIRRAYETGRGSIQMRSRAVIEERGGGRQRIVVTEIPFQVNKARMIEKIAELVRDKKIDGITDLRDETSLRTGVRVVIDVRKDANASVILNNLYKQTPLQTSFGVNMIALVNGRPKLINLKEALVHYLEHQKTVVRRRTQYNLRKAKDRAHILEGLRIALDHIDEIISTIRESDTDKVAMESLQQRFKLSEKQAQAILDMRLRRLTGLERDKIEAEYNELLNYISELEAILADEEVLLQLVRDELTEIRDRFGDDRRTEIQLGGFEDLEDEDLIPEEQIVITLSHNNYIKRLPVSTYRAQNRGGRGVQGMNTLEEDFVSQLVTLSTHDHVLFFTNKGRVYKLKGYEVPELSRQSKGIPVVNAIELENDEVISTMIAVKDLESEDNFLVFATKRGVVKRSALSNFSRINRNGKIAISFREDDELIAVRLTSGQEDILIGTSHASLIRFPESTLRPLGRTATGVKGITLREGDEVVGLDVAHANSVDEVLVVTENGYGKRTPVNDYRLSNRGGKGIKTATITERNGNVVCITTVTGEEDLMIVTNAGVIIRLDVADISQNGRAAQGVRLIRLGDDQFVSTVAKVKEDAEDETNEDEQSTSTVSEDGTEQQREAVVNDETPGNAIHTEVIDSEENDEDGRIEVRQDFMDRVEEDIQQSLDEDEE
S. aureus DNA gyrase, sequence (P0A0K8 whole entry): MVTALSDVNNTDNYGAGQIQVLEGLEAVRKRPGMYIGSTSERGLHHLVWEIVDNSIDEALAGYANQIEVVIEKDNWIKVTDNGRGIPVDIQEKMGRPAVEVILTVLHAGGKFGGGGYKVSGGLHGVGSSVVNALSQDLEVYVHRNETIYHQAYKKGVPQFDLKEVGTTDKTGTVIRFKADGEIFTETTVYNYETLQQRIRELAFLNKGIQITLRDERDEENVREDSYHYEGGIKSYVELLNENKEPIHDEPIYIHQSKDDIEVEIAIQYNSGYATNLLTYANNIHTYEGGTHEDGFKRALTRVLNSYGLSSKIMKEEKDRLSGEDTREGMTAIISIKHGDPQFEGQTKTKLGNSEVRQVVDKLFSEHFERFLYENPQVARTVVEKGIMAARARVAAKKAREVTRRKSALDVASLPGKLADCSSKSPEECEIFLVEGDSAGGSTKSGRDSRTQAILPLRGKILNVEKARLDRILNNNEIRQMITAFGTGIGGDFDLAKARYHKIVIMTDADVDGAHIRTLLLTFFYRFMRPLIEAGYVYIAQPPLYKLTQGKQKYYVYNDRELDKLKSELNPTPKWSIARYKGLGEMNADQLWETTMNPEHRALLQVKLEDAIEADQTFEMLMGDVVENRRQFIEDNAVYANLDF

S. aureus NCTC 4163 = assay: MIC, twofold microdilution, standard strain; assay type: cell-based; conditions: Staphylococcus aureus, NCTC4163; 18 h of treatment; read-out: MIC S. aureus NCTC 4163
[8] = system: S. epidermidis KR 4313 834/19; assay: MIC, clinical S. epidermidis strain; assay type: cell-based; conditions: Staphylococcus epidermidis, KR4313834/19, quinolone-susceptible, 18 h of treatment
M. tuberculosis H37Rv = assay: MABA (microplate Alamar blue assay) MIC; assay type: cell-based; conditions: Mycobacterium tuberculosis, 336 h, read-out: MIC M. tuberculosis H37Rv
S. aureus ATCC 25923 = assay: MIC, twofold microdilution, standard strain; assay type: cell-based; conditions: Staphylococcus aureus, ATCC25923; 18 h of treatment; read-out: MIC S. aureus ATCC 25923
[9] = system: S. epidermidis T 5253 845/19; assay: MIC, clinical S. epidermidis strain; assay type: cell-based; conditions: Staphylococcus epidermidis, T5253845/19, quinolone-resistant, 18 h of treatment
SW620 cells = assay: MTT assay, SW620; assay type: cell-based, human; conditions: for IC50: Homo sapiens, SW-620, 72 h, human metastatic colon cancer, 72 h, MTT, mean ± SD; for SI SW620: SI = IC50 for normal cell line (HaCaT)/IC50 cancer cell line
[10] = system: S. epidermidis KR 4047 825/19; assay: MIC, clinical S. epidermidis strain; assay type: cell-based; conditions: Staphylococcus epidermidis, KR4047825/19, quinolone-resistant, 18 h of treatment
[11] = system: S. epidermidis KR 4358/2 840/19; assay: MIC, clinical S. epidermidis strain; assay type: cell-based; conditions: Staphylococcus epidermidis, KR4358/2840/19; clinical S. epidermidis, quinolone-susceptible, 18 h of treatment; read-out: MIC KR 4358/2 840/19
SW480 cells = assay: MTT assay, SW480; assay type: cell-based, human; conditions: for IC50: Homo sapiens, SW480, 72 h, human primary colon cancer, 72 h, MTT, mean ± SD; for SI SW480: SI = IC50 for normal cell line (HaCaT)/IC50 cancer cell line
[12] = system: S. epidermidis T 5399 848/19; assay: MIC, clinical S. epidermidis strain; assay type: cell-based; conditions: Staphylococcus epidermidis, T5399848/19, quinolone-susceptible, 18 h of treatment
[13] = system: SW480, SW620, and PC3 cancer cell lines; assay: MTT assay, cancer cell lines as a group; assay type: cell-based, human; conditions: 72 h, all three cancer cell lines (SW480, SW620, PC3), read-out: IC50 against all tested cancer cell lines
[14] = system: quinolone-susceptible clinical coagulase-negative staphylococci; assay: MIC, quinolone-susceptible clinical isolates as a group; assay type: cell-based; conditions: Staphylococcus epidermidis; five quinolone-susceptible isolates; read-out: MIC against quinolone-susceptible clinical isolates

COc1c(N2CC3CCCN(C(=O)/C=C(\C)CCC=C(C)C)C3C2)c(F)cc2c(=O)c(C(=O)O)cn(C3CC3)c12 (centres unmarked) [Compound 3m, 1-Cyclopropyl-7-{1-(2E)-(3,7-dimethyl-octa-2,6-dienoyl)-octahydro-pyrrolo[3,4-b]pyridin-6-yl}-6-fluoro-8-methoxy-4-oxo-1,4-dihydro-quinoline-3-carboxylic acid]
IC50 (PC3 cells): 23.5 ± 4.7 µM | SI PC3 (PC3 cells): 3.5 | MIC (S. aureus ATCC 6538): 8 µg/mL (≈ 14.5 µM) | MIC [1]: 128 µg/mL (≈ 232 µM) | IC50 [2]: > 116 µM | MIC (M. tuberculosis strains): ≥ 128 µg/mL | MIC (S. aureus ATCC 29213): 8 µg/mL (≈ 14.5 µM) | MIC [3]: 16 µg/mL (≈ 29 µM) | MIC (E. coli ATCC 25922; ATCC25922, 18 h): 128 µg/mL (≈ 232 µM) | MIC [4]: 8 µg/mL (≈ 14.5 µM) | IC50 (HaCaT cells): 81.2 ± 2.6 µM | MIC [5]: 16 µg/mL (≈ 29 µM) | MIC [6]: 8 µg/mL (≈ 14.5 µM) | MIC (P. aeruginosa ATCC 27853): > 64 µg/mL | MIC [7]: 8 to 32 µg/mL (≈ 14.5 to 58 µM) | IC50 (S. aureus DNA gyrase): > 116 µM | MIC (S. aureus NCTC 4163): 8 µg/mL (≈ 14.5 µM) | MIC [8]: 16 µg/mL (≈ 29 µM) | MIC (M. tuberculosis H37Rv): 128 µg/mL (≈ 232 µM) | MIC (S. aureus ATCC 25923): 8 µg/mL (≈ 14.5 µM) | MIC [9]: 8 µg/mL (≈ 14.5 µM) | IC50 (SW620 cells): 38.2 ± 4.1 µM | SI SW620 (SW620 cells): 2.1 | MIC [10]: 16 µg/mL (≈ 29 µM) | MIC [11]: 8 µg/mL (≈ 14.5 µM) | IC50 (SW480 cells): 26.7 ± 1.4 µM | SI SW480 (SW480 cells): 3.0 | MIC [12]: 8 µg/mL (≈ 14.5 µM)

CC/C=C\C/C=C\C/C=C\C/C=C\C/C=C\C/C=C\CCC(=O)N1CCCC2CN(c3c(F)cc4c(=O)c(C(=O)O)cn(C5CC5)c4c3OC)CC21 (centres unmarked) [Compound 8m, 1-Cyclopropyl-7-{1-(4Z,7Z,10Z,13Z,16Z,19Z)-docosa-4,7,10,13,16,19-hexaenoyl-octahydro-pyrrolo[3,4-b]pyridin-6-yl}-6-fluoro-8-methoxy-4-oxo-1,4-dihydro-quinoline-3-carboxylic acid]
IC50 (PC3 cells): 5.6 ± 1.9 µM | SI PC3 (PC3 cells): 14.5 | MIC (S. aureus ATCC 6538): 2 µg/mL (≈ 2.81 µM) | MIC ([1]; 2 weeks of treatment): 4 µg/mL (≈ 5.62 µM) | IC50 [2]: > 89.9 µM | MIC (S. aureus ATCC 29213): 4 µg/mL (≈ 5.62 µM) | IC50 ([13]; Homo sapiens): 5 to 10 µM | IC50 [13]: 5.6 to 10.4 µM | MIC [3]: 4 µg/mL (≈ 5.62 µM) | MIC E. coli ATCC 25922 (E. coli ATCC 25922; 18 h of treatment): 2 to 16 µg/mL | MIC (E. coli ATCC 25922; ATCC25922, 18 h of treatment): 2 µg/mL (≈ 2.81 µM) | MIC [4]: 2 µg/mL (≈ 2.81 µM) | IC50 (HaCaT cells): 81.4 ± 3.2 µM | MIC [5]: 4 µg/mL (≈ 5.62 µM) | MIC [6]: 4 µg/mL (≈ 5.62 µM) | MIC (P. aeruginosa ATCC 27853): > 512 µg/mL | MIC [7]: 2 to 4 µg/mL (≈ 2.81 to 5.62 µM) | IC50 (S. aureus DNA gyrase): > 89.9 µM | MIC (S. aureus NCTC 4163): 2 µg/mL (≈ 2.81 µM) | MIC [8]: 4 µg/mL (≈ 5.62 µM) | MIC (M. tuberculosis H37Rv; 2 weeks of treatment): 8 µg/mL (≈ 11.2 µM) | MIC (S. aureus ATCC 25923): 2 µg/mL (≈ 2.81 µM) | MIC [9]: 512 µg/mL (≈ 719 µM) | IC50 (SW620 cells): 9.4 ± 3.7 µM | SI SW620 (SW620 cells): 8.7 | MIC [10]: 512 µg/mL (≈ 719 µM) | MIC [11]: 4 µg/mL (≈ 5.62 µM) | IC50 (SW480 cells): 6.2 ± 1.3 µM | SI SW480 (SW480 cells): 13.1 | MIC [14]: 4 µg/mL (≈ 5.62 µM) | MIC [12]: 4 µg/mL (≈ 5.62 µM)
